Data: ChEMBL document CHEMBL4043168, “The design and SAR of a novel series of 2-aminopyridine based LRRK2 inhibitors” (Bioorg Med Chem Lett, 2017)

Key:
[1] = molecular target: Serine/threonine-protein kinase ULK1 (Homo sapiens) (UniProt O75385); assay: Inhibition of ULK1 conserved Lys2 (DLKPQNILLSNPAGR) in human PBMC at 1 uM
[2] = molecular target: Tyrosine-protein kinase Fgr (Homo sapiens) (UniProt P09769); assay: Inhibition of FGR conserved Lys1 (LIKDDEYNPCQGSKFPIK) in human PBMC at 0.1 uM
[3] = molecular target: Serine/threonine-protein kinase Nek8 (Homo sapiens) (UniProt Q86SG6); assay: Inhibition of NEK8 conserved Lys2 (DLKTQNILLDK) in human PBMC at 0.1 uM
Chain of Serine/threonine-protein kinase Nek8 (Homo sapiens) (Q86SG6 whole entry): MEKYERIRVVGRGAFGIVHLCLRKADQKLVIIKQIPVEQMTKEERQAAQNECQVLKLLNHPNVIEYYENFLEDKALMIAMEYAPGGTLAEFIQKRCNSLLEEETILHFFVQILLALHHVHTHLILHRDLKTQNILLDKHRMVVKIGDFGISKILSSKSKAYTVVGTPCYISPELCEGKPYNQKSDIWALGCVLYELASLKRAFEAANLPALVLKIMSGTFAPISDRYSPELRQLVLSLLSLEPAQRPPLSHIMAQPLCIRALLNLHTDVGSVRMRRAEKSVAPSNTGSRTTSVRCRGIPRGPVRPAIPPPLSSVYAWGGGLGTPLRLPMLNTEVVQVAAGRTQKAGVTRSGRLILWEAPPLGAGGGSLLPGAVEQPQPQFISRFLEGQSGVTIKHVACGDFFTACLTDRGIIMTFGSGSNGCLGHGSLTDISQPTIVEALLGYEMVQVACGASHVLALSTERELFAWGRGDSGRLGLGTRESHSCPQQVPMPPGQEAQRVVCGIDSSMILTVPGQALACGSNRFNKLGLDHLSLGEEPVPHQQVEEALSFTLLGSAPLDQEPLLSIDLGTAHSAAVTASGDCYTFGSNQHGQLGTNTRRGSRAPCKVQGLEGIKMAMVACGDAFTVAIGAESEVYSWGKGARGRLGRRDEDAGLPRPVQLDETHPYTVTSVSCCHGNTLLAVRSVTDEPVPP

[4] = molecular target: T1, Serine/threonine-protein kinase LATS1 (Homo sapiens) (UniProt O95835); assay: Inhibition of LATS1 conserved Lys2 (DIKPDNILIDR) in human PBMC at 0.1 uM
T1 sequence (whole entry): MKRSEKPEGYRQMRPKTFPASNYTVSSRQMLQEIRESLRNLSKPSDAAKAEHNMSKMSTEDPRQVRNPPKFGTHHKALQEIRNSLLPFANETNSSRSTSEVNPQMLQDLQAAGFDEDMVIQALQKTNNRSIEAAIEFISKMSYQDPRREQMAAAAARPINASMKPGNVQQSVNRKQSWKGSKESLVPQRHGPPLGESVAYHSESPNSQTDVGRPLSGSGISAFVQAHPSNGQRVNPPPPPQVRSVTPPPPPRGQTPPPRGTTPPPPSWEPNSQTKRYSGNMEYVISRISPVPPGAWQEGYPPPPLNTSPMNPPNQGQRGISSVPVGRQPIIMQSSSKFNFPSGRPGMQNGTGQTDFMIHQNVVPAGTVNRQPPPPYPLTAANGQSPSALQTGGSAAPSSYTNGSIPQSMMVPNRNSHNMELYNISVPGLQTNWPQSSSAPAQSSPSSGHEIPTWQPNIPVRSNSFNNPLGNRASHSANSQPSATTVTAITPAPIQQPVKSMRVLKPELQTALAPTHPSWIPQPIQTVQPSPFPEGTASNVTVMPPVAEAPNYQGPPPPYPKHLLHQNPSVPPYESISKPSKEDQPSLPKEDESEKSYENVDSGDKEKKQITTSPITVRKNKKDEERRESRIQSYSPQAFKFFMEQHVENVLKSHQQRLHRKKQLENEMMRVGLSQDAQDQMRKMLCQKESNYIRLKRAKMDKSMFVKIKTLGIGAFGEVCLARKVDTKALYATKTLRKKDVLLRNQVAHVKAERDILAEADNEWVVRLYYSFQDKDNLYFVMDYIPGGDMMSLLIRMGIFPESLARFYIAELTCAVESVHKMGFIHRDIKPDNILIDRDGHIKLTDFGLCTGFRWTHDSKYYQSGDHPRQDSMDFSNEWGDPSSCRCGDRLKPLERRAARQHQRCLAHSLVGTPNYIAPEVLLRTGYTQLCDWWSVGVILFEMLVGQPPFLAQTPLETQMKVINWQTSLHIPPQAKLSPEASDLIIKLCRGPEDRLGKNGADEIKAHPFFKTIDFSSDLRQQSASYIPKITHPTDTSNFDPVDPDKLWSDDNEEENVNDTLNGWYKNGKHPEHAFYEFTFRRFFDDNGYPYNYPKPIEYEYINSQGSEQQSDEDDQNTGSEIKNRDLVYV

[5] = molecular target: MAP/microtubule affinity-regulating kinase 3 (Homo sapiens) (UniProt P27448); assay: Inhibition of MARK3 conserved Lys2 (DLKAENLLLDADMNIK) in human PBMC at 1 uM
Chain of MAP/microtubule affinity-regulating kinase 3 (Homo sapiens) (P27448 whole entry, looked up): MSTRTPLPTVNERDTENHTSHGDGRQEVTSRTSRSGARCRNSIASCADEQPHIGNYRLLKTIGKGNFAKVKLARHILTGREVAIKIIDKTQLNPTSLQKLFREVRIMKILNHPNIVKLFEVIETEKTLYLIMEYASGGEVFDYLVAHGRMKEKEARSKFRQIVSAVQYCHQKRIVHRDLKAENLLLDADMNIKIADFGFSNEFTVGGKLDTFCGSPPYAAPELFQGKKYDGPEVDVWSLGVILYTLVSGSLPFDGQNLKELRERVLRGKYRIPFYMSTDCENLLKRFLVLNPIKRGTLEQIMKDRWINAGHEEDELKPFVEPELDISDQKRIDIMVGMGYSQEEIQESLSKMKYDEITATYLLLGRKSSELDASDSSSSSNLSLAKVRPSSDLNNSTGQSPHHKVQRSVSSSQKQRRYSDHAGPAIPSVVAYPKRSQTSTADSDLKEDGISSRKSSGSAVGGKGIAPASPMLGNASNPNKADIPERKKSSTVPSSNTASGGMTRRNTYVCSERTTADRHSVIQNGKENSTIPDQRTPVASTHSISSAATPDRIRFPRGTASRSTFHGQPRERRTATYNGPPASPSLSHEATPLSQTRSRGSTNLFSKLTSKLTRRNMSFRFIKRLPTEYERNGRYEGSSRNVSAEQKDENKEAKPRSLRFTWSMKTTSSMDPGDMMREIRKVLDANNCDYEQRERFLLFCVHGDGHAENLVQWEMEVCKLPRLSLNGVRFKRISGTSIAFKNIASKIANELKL

[6] = molecular target: Kinase suppressor of Ras 1 (Homo sapiens) (UniProt Q8IVT5); assay: Inhibition of KSR1 activation Loop (SKNVFYDNGK) in human PBMC at 0.1 uM
Chain of Kinase suppressor of Ras 1 (Homo sapiens) (Q8IVT5 whole entry): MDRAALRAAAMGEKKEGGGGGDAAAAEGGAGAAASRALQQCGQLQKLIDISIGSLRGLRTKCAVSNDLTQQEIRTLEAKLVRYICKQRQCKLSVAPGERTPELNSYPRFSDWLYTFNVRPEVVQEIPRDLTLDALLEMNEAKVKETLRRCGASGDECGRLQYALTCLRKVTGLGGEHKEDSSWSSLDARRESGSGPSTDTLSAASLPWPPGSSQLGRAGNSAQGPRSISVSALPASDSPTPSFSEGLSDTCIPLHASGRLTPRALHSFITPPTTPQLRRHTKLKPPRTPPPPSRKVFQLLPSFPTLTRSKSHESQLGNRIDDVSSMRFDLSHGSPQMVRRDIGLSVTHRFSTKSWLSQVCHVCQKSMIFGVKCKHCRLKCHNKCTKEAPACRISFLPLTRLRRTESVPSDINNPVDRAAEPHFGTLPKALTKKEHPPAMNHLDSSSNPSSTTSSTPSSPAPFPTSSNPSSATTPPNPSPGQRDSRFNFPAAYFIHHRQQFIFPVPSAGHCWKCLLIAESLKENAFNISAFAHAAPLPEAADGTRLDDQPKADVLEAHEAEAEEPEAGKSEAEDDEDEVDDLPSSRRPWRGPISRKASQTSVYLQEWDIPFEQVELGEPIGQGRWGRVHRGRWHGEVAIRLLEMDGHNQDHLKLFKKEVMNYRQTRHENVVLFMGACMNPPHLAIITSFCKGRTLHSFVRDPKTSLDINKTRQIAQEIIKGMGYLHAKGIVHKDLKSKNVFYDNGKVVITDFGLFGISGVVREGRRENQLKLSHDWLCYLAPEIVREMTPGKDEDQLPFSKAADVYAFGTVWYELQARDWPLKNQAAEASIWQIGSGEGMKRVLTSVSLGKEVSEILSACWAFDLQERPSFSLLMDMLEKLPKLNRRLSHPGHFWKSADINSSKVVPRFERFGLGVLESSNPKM

[7] = molecular target: Mitogen-activated protein kinase 13 (Homo sapiens) (UniProt O15264); assay: Inhibition of p38d conserved Lys2 (DLKPGNLAVNEDCELK) in human PBMC at 0.1 uM
[8] = molecular target: Serine/threonine-protein kinase PLK1 (Homo sapiens) (UniProt P53350); assay: Inhibition of PLK1 conserved Lys1 (CFEISDADTKEVFAGKIVPK) in human PBMC at 1 uM
[9] = molecular target: Glycogen synthase kinase-3 beta (Homo sapiens) (UniProt P49841); assay: Inhibition of GSK3B conserved Lys2 (DIKPQNLLLDPDTAVLK) in human PBMC at 0.1 uM
Chain of Glycogen synthase kinase-3 beta (Homo sapiens) (P49841 whole entry, looked up): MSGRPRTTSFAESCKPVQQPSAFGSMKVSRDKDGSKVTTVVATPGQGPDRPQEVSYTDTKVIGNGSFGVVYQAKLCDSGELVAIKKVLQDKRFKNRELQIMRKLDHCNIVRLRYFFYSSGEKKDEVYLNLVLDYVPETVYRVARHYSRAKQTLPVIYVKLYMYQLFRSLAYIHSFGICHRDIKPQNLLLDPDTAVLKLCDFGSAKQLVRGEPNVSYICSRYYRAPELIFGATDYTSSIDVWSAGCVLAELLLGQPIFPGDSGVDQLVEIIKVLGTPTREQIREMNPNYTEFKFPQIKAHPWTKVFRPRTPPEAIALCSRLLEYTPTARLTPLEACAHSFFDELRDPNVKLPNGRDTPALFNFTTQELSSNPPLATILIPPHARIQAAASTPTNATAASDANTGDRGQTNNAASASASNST

[10] = molecular target: 5'-AMP-activated protein kinase catalytic subunit alpha-2 (Homo sapiens) (UniProt P54646); assay: Inhibition of AMPKa2 labeling at conserved Lys1 (VAVKILNR) in human PBMC at 1 uM
Chain of 5'-AMP-activated protein kinase catalytic subunit alpha-2 (Homo sapiens) (P54646 whole entry, looked up): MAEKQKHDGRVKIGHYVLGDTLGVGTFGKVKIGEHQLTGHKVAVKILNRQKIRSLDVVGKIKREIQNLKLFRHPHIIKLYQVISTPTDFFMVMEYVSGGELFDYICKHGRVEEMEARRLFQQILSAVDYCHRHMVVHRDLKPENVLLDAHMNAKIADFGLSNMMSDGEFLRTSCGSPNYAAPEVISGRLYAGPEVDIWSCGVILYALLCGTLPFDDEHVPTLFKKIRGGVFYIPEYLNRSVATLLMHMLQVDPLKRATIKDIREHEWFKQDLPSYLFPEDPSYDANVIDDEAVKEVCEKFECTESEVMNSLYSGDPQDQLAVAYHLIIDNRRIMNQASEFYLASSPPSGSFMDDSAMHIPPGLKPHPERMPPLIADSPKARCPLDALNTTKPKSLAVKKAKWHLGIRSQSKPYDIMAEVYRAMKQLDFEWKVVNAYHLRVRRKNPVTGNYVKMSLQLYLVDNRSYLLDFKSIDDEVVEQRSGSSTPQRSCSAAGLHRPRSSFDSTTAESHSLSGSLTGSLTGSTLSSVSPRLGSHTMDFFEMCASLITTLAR

[11] = molecular target: 5'-AMP-activated protein kinase catalytic subunit alpha-2 (Homo sapiens) (UniProt P54646); assay: Inhibition of AMPKa2 labeling at conserved Lys1 (VAVKILNR) in human PBMC at 0.1 uM
[12] = molecular target: Tyrosine-protein kinase Yes (Homo sapiens) (UniProt P07947); assay: Inhibition of YES activation Loop (QGAKFPIKWTAPEAALYGR) in human PBMC at 0.1 uM
Chain of Tyrosine-protein kinase Yes (Homo sapiens) (P07947 2-543 limits assumed): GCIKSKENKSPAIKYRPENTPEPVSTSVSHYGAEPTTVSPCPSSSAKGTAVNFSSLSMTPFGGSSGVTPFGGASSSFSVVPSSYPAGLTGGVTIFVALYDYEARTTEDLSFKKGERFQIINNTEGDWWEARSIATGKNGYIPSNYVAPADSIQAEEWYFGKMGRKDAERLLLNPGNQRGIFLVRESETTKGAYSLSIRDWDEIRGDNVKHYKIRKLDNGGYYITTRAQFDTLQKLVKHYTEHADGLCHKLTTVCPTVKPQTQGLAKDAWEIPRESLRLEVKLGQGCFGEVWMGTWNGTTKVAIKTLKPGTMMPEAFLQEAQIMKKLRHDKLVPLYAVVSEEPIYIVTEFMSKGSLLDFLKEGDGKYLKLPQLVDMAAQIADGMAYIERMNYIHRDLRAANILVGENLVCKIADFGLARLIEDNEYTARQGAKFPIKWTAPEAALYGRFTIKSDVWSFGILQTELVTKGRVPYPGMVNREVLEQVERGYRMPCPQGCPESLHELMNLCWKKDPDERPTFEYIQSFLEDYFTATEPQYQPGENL

[13] = molecular target: Kinase suppressor of Ras 2 (Homo sapiens) (UniProt Q6VAB6); assay: Inhibition of KSR2 activation Loop (SKNVFYDNGK) in human PBMC at 0.1 uM
[14] = molecular target: Serine/threonine-protein kinase 10 (Homo sapiens) (UniProt O94804); assay: Inhibition of LOK conserved Lys1 (NKETGALAAAKVIETK) in human PBMC at 1 uM
[15] = molecular target: Tyrosine-protein kinase JAK1 (Homo sapiens) (UniProt P23458); assay: Inhibition of JAK1 domain1 (QLASALSYLEDKDLVHGNVCTKNLLLAR) in human PBMC at 0.1 uM
[16] = molecular target: Ribosomal protein S6 kinase alpha-1 (Homo sapiens) (UniProt Q15418); assay: Inhibition of RSK1 domain2 conserved Lys2 (DLKPSNILYVDESGNPECLR) in human PBMC at 1 uM
[17] = molecular target: Ribosomal protein S6 kinase beta-2 (Homo sapiens) (UniProt Q9UBS0); assay: Inhibition of p70S6Kb ATP binding site (GGYGKVFQVR) in human PBMC at 1 uM
Chain of Ribosomal protein S6 kinase beta-2 (Homo sapiens) (Q9UBS0 whole entry): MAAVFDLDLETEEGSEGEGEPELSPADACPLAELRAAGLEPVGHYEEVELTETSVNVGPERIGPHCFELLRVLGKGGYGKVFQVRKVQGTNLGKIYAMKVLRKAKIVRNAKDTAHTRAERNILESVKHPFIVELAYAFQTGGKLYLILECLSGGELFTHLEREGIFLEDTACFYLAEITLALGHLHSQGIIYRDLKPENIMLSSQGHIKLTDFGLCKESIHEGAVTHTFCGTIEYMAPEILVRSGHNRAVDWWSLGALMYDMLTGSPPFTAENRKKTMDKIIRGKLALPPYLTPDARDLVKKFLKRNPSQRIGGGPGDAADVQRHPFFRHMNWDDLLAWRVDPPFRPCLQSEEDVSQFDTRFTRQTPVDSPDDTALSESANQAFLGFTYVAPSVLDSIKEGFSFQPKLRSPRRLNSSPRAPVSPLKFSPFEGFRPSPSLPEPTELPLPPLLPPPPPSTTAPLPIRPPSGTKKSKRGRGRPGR

[18] = molecular target: Cyclin-dependent kinase 5 (Homo sapiens) (UniProt Q00535); assay: Inhibition of CDK5 labeling at conserved Lys2 (DLKPQNLLINR) in human PBMC at 1 uM
[19] = molecular target: Serine/threonine-protein kinase WNK2 (Homo sapiens) (UniProt Q9Y3S1); assay: Inhibition of Wnk2 ATP binding site (GSFKTVYK) in human PBMC at 1 uM
[20] = molecular target: Mitogen-activated protein kinase kinase kinase 20 (Homo sapiens) (UniProt Q9NYL2); assay: Inhibition of ZAK conserved Lys1 (WISQDKEVAVKK) in human PBMC at 0.1 uM
[21] = molecular target: Serine/threonine-protein kinase 24 (Homo sapiens) (UniProt Q9Y6E0); assay: Inhibition of MST3 conserved Lys2 (DIKAANVLLSEHGEVK) in human PBMC at 0.1 uM
Chain of Serine/threonine-protein kinase 24 (Homo sapiens) (Q9Y6E0 whole entry, looked up): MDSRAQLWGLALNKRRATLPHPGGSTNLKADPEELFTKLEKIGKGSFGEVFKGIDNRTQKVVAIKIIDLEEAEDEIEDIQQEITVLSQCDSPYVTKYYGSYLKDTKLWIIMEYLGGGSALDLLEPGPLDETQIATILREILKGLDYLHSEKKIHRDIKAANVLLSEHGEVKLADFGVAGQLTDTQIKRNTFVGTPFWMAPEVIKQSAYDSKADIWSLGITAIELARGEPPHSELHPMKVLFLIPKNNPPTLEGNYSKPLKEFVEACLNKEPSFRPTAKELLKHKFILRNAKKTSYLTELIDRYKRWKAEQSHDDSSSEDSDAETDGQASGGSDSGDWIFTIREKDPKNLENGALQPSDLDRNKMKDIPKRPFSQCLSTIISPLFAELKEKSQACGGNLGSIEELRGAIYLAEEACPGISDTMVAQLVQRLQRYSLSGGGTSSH

[22] = molecular target: Tyrosine-protein kinase Yes (Homo sapiens) (UniProt P07947); assay: Inhibition of YES activation Loop (QGAKFPIKWTAPEAALYGR) in human PBMC at 1 uM

CC(C)n1cc(-c2cc(-c3ccc(CN4CCOCC4)cc3)cnc2N)nn1
inhibition [1]: 10.8% | inhibition [2]: 9.6% | inhibition [3]: 0.2% | inhibition [4]: 34.9% | inhibition [5]: 28.8% | inhibition [6]: 20.4% | inhibition [7]: 26.4% | inhibition [8]: 16% | inhibition [9]: -10% | inhibition [10]: 17.3% | inhibition [11]: 7.7% | inhibition [12]: -4.4% | inhibition [13]: 20.4% | inhibition [14]: 32.2% | inhibition [15]: 16.4% | inhibition [16]: -6% | inhibition [17]: -7.8% | inhibition [18]: 8.9% | inhibition [19]: 14.2% | inhibition [20]: 11.3% | inhibition [21]: 11% | inhibition [22]: -2.3%
